According to patent US20240327356A1, “PYRIMIDINE BASED RAS MODULATORS AND USES THEREOF” (QUANTA THERAPEUTICS, INC., priority 2021, published 2024):
pEC50, pIC50: −log10 of the molar value.

Legend:
[1] = tested on: pERK (ERK phospho-T202/Y204) in SW-480 cells; assay: pERK inhibition in SW-480 cell line (HTRF); assay type: cell-based; details: Homo sapiens, SW480, 1 hour incubation with compound
Experimental: SW-480 cells were cultured in Leibovitz's L15 (Gibco Cat. No. 11415064), supplemented with 10% fetal bovine serum (Gibco, Cat. No. 1993708), and 1% penicillin and streptomycin. Cells were grown at 37° C., under atmospheric conditions without additional CO2. Cells were seeded into a 96-well tissue-culture treated plate (Greiner, Cat. No. 655180) at a density of 30,000 cell per well, and allowed to adhere for 16 hours before the media was removed, and cells were treated with compounds diluted into culture media at the indicated concentrations. After 1 hour of incubation in the presence of compound, cells were harvested to measure pERK levels using the lysis buffer supplied with the Homogenous Time Resolved Fluorescence pERK kit (HTRF, Cisbio Advance ERK phospho-T202/Y204, Cat. No. 64AERPEG). Lysates were transferred to a 384-well low-volume white plate (PerkinElmer, Cat. No. 6008280) and then treated with the detection reagents supplied by the HTRF kit, according to the “2-plate” protocol supplied by the manufacturer, and incubated for 4-hours at ambient temperature in darkness. Assay plates were read at two fluorescent wavelengths (665 nm and 620 nm) using an Envision plate reader (Perkin Elmer) and data was processed and fitted to a 4-parameter logistic model using Graphpad Prism 8.0 to calculate IC50 values.

[2] = tested on: Phospho-ERK (Thr202/Tyr204) in MiaPaCa-2 cells; assay: pERK inhibition in MiaPaca-2 cell line (HTRF); assay type: cell-based; details: Homo sapiens, MIA PaCa-2, 1 hour incubation with compound
Experimental: MiaPaCa-2 cells (ATCC CRL-1420) were cultured in high glucose DMEM (Gibco 11965092) containing 10% fetal bovine serum (Gibco 1993708) and 1× Penicillin/Streptomycin, at 37° C. in a humid atmosphere of 5% CO2 in the air. Cells were plated in tissue-culture treated 96-well plates at a density of 10,000 cells/well and allowed to attach for 16 hours. The medium was then removed, and diluted compounds were added in a final concentration of 0.5% DMSO. After 1 hour of incubation, cells were lysed by the lysis buffer supplied with the Phospho-ERK (Thr202/Tyr204) cellular HTRF kit (Cisbio 64ERKPEH) and transferred to a 384-well low-volume white plate (PerkinElmer 6008280). The cell lysates were treated with the detection reagents supplied with the HTRF kit for 4 hours at ambient temperature in darkness. Two fluorescence intensities at the wavelengths (665 and 620 nm) were measured by the Envision plate reader (Perkin Elmer), and the data were processed and fitted to a 4-parameter logistic model for IC50 calculation (GraphPad Prism 9).

[3] = target: KRAS^G12D-FMe.RAF1^RBDCRD complex (Homo sapiens, UniProt P01116, G12D); assay: SHG assay: binding to bilayer-tethered KRAS G12D/RAF1 complex; details: GppNHp-loaded complex on PS bilayer; compound 0.027-40 μM, monitored over 60 min
Experimental: Compounds suspected to carry intrinsic SHG activity were tested in the presence of an unlabeled KRAS^G12D-FMe.RAF1^RBDCRD complex to monitor binding. PS bilayer was prepared from PS-enriched small unilamellar vesicles (SUVs) purchased from Biodesy, Inc. The concentrated SUVs were diluted in TBS buffer containing 5 mM CaCl2 and incubated on a glass-bottom 384-well Biodesy Delta™ assay plate to allow bilayer formation. Equimolar amounts of GppNHp-loaded KRAS^G12D-FMe and RAF1^RBDCRD were mixed and incubated together on PS bilayer overnight at 4° C. The following day, untethered protein was removed by washing with assay buffer (20 mM Hepes, pH 7.4, […], 1 mM TCEP, 5 μM GppNHp). The SHG signal produced by bilayer-tethered complex was ready using the Biodesy Delta™ platform where each well was pulsed with an 800 nm laser and the resulting second harmonic signal intensity at 400 nm was collected. Compounds were diluted into the same assay buffer and applied to the complex at a final concentration range spanning 0.027 μM-40 μM and the SHG intensity of each well was monitored at 5 minute intervals over a 60 minute time period.

Row | SMILES | pIC50 [1] | pIC50 [2] | pEC50 [3]
1 | Cc1ccc(-c2ncc(CNC(=O)C3(F)CNC3)c(N3CCC(CN)C3)n2)cc1Cl (stereo not drawn) [Compound 102] |  | 5.00 to 6.00 | 5.00 to 6.00
2 | N#CC1(C(=O)N2CC=C(c3cnc(-c4ccc(Cl)c(C(F)(F)F)c4)nc3N3CCC(CN)C3)C2)CC1 (stereo not drawn) [Compound 29] |  | 5.00 to 6.00 | 5.00 to 6.00
3 | N#Cc1cc(-c2ncc(C3=CCN(C(=O)C4(C#N)CC4)C3)c(N3CCC(CN)C3)n2)ccc1Cl (stereo not drawn) [Compound 30] |  | 5.00 to 6.00 | 4.30 to 5.00
4 | N[C@@H]1CN(c2nc(-c3ccc(Cl)cc3NC(=O)C3(F)CC3)ncc2C2=CCNC2)C[C@H]1O [Compound 44] |  | 5.00 to 6.00 | 5.00 to 6.00
5 | Cc1ccc(-c2ncc(CNC(=O)C3(F)CC3)c(N3CCC(N)CC3)n2)cc1Cl [Compound 92] |  | 5.00 to 6.00 | 5.00 to 6.00
6 | Cc1ccc(-c2ncc(CNC(=O)C3(F)CC3)c(OC3CCN(C)C3)n2)cc1Cl (stereo not drawn) [Compound 89] |  | 5.00 to 6.00 | 4.30 to 5.00
7 | N[C@H]1CN(c2nc(-c3ccc(Cl)c(C(F)(F)F)c3)ncc2C2=CCNC2)C[C@@H]1O [Compound 61] |  | 5.00 to 6.00 | 5.00 to 6.00
8 | NCC1CCN(c2nc(-c3ccc(C(F)(F)F)cc3F)ncc2CNC(=O)Nc2ccccc2)C1 (stereo not drawn) [Compound 19, 1-[[4-[3-(aminomethyl)pyrrolidin-1-yl]-2-[2-fluoro-4-(trifluoromethyl)phenyl]pyrimidin-5-yl]methyl]-3-phenyl-urea] |  | 5.00 to 6.00 | 5.00 to 6.00
9 | CCOC(=O)NCc1cnc(-c2ccc(C)c(Cl)c2)nc1N1CCC(CN)C1 (stereo not drawn) [Compound 118] |  | 5.00 to 6.00 | 4.30 to 5.00
10 | N#CC1(C(=O)NCc2cnc(-c3ccc(Cl)c(C(F)(F)F)c3)nc2OC2CNC2)CC1 [Compound 39] |  | 5.00 to 6.00 | 5.00 to 6.00
11 | NCCOc1nc(-c2ccc(Cl)c(C(F)(F)F)c2)ncc1C1=CCNC1 [Compound 34, 2-[2-[4-chloro-3-(trifluoromethyl)phenyl]-5-(2,5-dihydro-1H-pyrrol-3-yl)pyrimidin-4-yl]oxyethanamine] |  | 5.00 to 6.00 | 6.00 to 7.00
12 | N#CC1(C(=O)NCc2cnc(-c3ccc(Cl)c(C(F)(F)F)c3)nc2OC2CC(N)C2)CC1 (stereo not drawn) [Compound 50] |  | 5.00 to 6.00 | 5.00 to 6.00
13 | N#CC1(C(=O)NCc2cnc(-c3ccc(Cl)c(C(F)(F)F)c3)nc2N2CCC[C@H]2CN)CC1 [Compound 55] |  | 5.00 to 6.00 | 4.30 to 5.00
14 | N#CC1(C(=O)NCc2cnc(-c3ccc(Cl)c(C(F)(F)F)c3)nc2C2=CCC(N)CC2)CC1 (stereo not drawn) [Compound 58, N-[[4-(4-aminocyclohexen-1-yl)-2-[4-chloro-3-(trifluoromethyl)phenyl]pyrimidin-5-yl]methyl]-1-cyano-cyclopropanecarboxamide] |  | 5.00 to 6.00 | 5.00 to 6.00

Next, values leading:

Row | pIC50 [1] | pIC50 [2] | pEC50 [3] | SMILES
15 | 5.00 to 6.00 | 6.00 to 7.00 | 5.00 to 6.00 | Cc1ccc(-c2ncc(CNC(=O)C3(C#N)CC3)c(N3CCC(N)CC3)n2)cc1Cl [Compound 67]
16 | 5.00 to 6.00 | 5.00 to 6.00 | 4.30 to 5.00 | N#CC1(C(=O)NCc2cnc(-c3ccc(Cl)c(C(F)F)c3)nc2N2CCC(CN)C2)CC1 (stereo not drawn) [Compound 57]
17 | 5.00 to 6.00 | 6.00 to 7.00 | 5.00 to 6.00 | Cc1ccc(-c2ncc(CNC(=O)C3(C#N)CC3)c(N3CCC(CN)C3)n2)cc1Cl (stereo not drawn) [Compound 41]
18 | 5.00 to 6.00 | 5.00 to 6.00 | 4.30 to 5.00 | Cc1cc(-c2ncc(CNC(=O)C3(C#N)CC3)c(N3CCC(CN)C3)n2)ccc1Cl (stereo not drawn) [Compound 52]
19 | 5.00 to 6.00 | 5.00 to 6.00 | 5.00 to 6.00 | Cc1ccc(-c2ncc(CNC(=O)C3(F)CC3)c(N3CCC(CN)C3)n2)cc1Cl (stereo not drawn) [Compound 59]
20 | 5.00 to 6.00 | 5.00 to 6.00 | 5.00 to 6.00 | Cc1ccc(-c2ncc(CNC(=O)C3(F)CC3)c(N3C[C@@H]4[C@@H](N)[C@@H]4C3)n2)cc1Cl [Compound 84]
21 | 5.00 to 6.00 | 5.00 to 6.00 | 5.00 to 6.00 | N#CC1(C(=O)NCc2cnc(-c3ccc(Cl)c(C(F)(F)F)c3)nc2N2CCC(CN)C2)CC1 (stereo not drawn) [Compound 5, N-[[4-[3-(aminomethyl)pyrrolidin-1-yl]-2-[4-chloro-3-(trifluoromethyl)phenyl]pyrimidin-5-yl]methyl]-1-cyano-cyclopropanecarboxamide]
22 | 5.00 to 6.00 | 6.00 to 7.00 | 4.30 to 5.00 | Cc1ccc(-c2ncc(CNC(=O)C3(CO)CC3)c(N3CCC(CN)C3)n2)cc1Cl (stereo not drawn) [Compound 105]
23 | 5.00 to 6.00 | 6.00 to 7.00 | 5.00 to 6.00 | Cc1ccc(-c2ncc(CNC(=O)C3(C#N)CC3)c(N3CC[C@@H](CN)C3)n2)cc1Cl [Compound 62]
24 | 5.00 to 6.00 | 5.00 to 6.00 | 5.00 to 6.00 | Cc1ccc(-c2ncc(CNC(=O)C3(F)CC3)c(N3CCNCC3)n2)cc1Cl [Compound 91]
25 | 5.00 to 6.00 | 5.00 to 6.00 |  | Cc1ccc(-c2ncc(CNC(=O)C3(F)CC3)c(N3CC[C@@H](CN)C3)n2)cc1Cl [Compound 72]
26 | 5.00 to 6.00 | 5.00 to 6.00 | 5.00 to 6.00 | Cc1ccc(-c2ncc(CNC(=O)C3(C#N)CCC3)c(N3CCC(CN)C3)n2)cc1Cl (stereo not drawn) [Compound 87]
27 | 5.00 to 6.00 | 5.00 to 6.00 | 5.00 to 6.00 | NCC1CCN(c2nc(-c3ccc(C(F)(F)F)c(Cl)c3)ncc2N2CCCC2=O)C1 (stereo not drawn) [Compound 90, 1-[4-[3-(aminomethyl)pyrrolidin-1-yl]-2-[3-chloro-4-(trifluoromethyl)phenyl]pyrimidin-5-yl]pyrrolidin-2-one]
28 | 4.30 to 5.00 | 5.00 to 6.00 | 4.30 to 5.00 | Cc1ccc(-c2ncc(CNC(=O)C3(F)CC3)c(N3CCN(C)CC3)n2)cc1Cl [Compound 83]
29 | 6.00 to 7.00 | 6.00 to 7.00 | 5.00 to 6.00 | Cc1ccc(-c2ncc(CNC(=O)C3(C#N)CC3)c(N3CC[C@H](CN)C3)n2)cc1Cl [Compound 73]
30 | 5.00 to 6.00 | 5.00 to 6.00 | 5.00 to 6.00 | Cc1ccc(-c2ncc(NS(=O)(=O)c3ccccc3)c(N3CCC(CN)C3)n2)cc1Cl (stereo not drawn) [Compound 112]
31 | 5.00 to 6.00 | 6.00 to 7.00 | 4.30 to 5.00 | N#CC1(C(=O)NCc2cnc(-c3ccc4c(c3)CCC4)nc2N2CCC(CN)C2)CC1 (stereo not drawn) [Compound 104]
